From patent publication US20240100068A1, “METHODS COMPRISING ADMINISTRATION OF A GLUCOCORTICOID RECEPTOR AGONIST AND AN INHIBITOR OF CALCINEURIN” (Chengdu Anticancer Bioscience, Ltd., priority 2022, published 2024) come the findings set out here.

Each structure is given as a SMILES string. Read-outs that look alike come from different tables or passages of the source.

The test system of the assay is T2MycNick cells. The assay is described as follows: Testing compounds for their ability of restoring contact inhibition (vacuolation, cell density). The format is cell-based, murine. The settings on record: for minimal effective concentration: T2MycNick cells grown beyond confluence, 7-14 days; for cell density reduction (in words) / vacuolation (in words): compound alone; for vacuolation (in words): up to 10 μM.

The mark [1] stands for this setting: Mus musculus, PI staining, read-out: Conc that reduces > 50% in the cell density.
Where [2] appears, read: Mus musculus, vacuolation covering no less than 10% of a random field, read-out: Min. effective conc. that elicits vacuolation.
Setting [3] is: PI staining, read-out: Conc that reduces > 50% in the cell density.
Where [4] appears, read: vacuolation covering no less than 10% of a random field, read-out: Min. effective conc. that elicits vacuolation.

Procedure: Exponentially growing MycNick cells were passaged into 24-well plates at a final confluence of 90% and were allowed to attach for 48 hours before being exposed to a cortisol analog in the presence or absence of a calcineurin inhibitor. After the initiation of treatment, the cells were allowed to grow beyond confluence for 7 days before being subjected to morphological analysis and cell density. An inverted tissue culture microscope (Leica) was used to document vacuoles in live cells. Cell density was evaluated under an EVOS FL Auto microscope (Thermo Fisher) after fixation of the treated cells with 4% paraformaldehyde (PFA) in the presence of detergent 0.5% Triton X-100 and subsequently staining of DNA with 5 μg/ml of Propidium Iodide (PI) in the presence of 5 μg/ml of Ribonuclease A from bovine pancreas (RNase A) (Sigma, Cat. # R6513-50MG).
The threshold concentration that was used to elicit no less than 50% of reduction in the cell density was determined. So was the minimal effective concentration that could induce vacuolation to an extent that covered no less than 10% of a random field documented under a bright field microscope. Quantification of the area with vacuolation, multilayer zones or multilayer zones was performed with the Image J software. More than 10 random fields were chosen for quantification for each data point in each of two independent experiments.
Exponentially growing murine cells expressing Myc-Nick (T2MycNick cells) were passaged into 24-well plates at a final confluence of 20% and were allowed to attach overnight before being exposed to a test compound at a concentration of 10 μM. […] The cells were subjected to daily analysis of viability and morphology under an inverted tissue culture microscope or GE InCell Analyzer 2000. Cell density was documented after staining of DNA with PI 7-10 days after the initiation of treatment.

Take `CCC(=O)OCC(=O)[C@@]1(OC(=O)CC)[C@@H](C)C[C@H]2[C@@H]3CCC4=CC(=O)C=C[C@]4(C)[C@@]3(Cl)[C@@H](O)C[C@@]21C` [CI019, Beclomethasone dipropionate]: the minimal effective concentration is, setting by setting: under setting [1], 2.5 µM; under setting [2], 0.625 µM.
As to `CC1(C)O[C@@H]2C[C@H]3[C@@H]4CCC5=CC(=O)C=C[C@]5(C)[C@H]4[C@@H](O)C[C@]3(C)[C@]2(C(=O)CO)O1` [CI020, Desonide], the minimal effective concentration is, setting by setting: under setting [1], 2.5 µM; under setting [2], 0.625 µM.
For the compound `CC1(C)O[C@@H]2C[C@H]3[C@@H]4C[C@H](F)C5=CC(=O)C=C[C@]5(C)[C@@]4(F)[C@@H](O)C[C@]3(C)[C@]2(C(=O)CO)O1` [CI021, Fluocinolone Acetonide], the minimal effective concentration runs as follows: under setting [1], 2.5 µM; under setting [2], 0.625 µM.
For the compound `CCC(=O)O[C@]1(C(=O)SCF)[C@H](C)C[C@H]2[C@@H]3C[C@H](F)C4=CC(=O)C=C[C@]4(C)[C@@]3(F)[C@@H](O)C[C@@]21C` [CI022, Fluticasone propionate], the minimal effective concentration reads like this: under setting [1], 2.5 µM; under setting [2], 0.625 µM.
For `C[C@@H]1C[C@H]2[C@@H]3CCC4=CC(=O)C=C[C@]4(C)[C@@]3(Cl)[C@@H](O)C[C@]2(C)[C@@]1(OC(=O)c1ccco1)C(=O)CCl` [CI023, Mometasone Furoate] the same measures were 2.5 µM and 0.625 µM.
With `C[C@]12C[C@H](O)[C@H]3[C@@H](CCC4=CC(=O)CC[C@@]43C)[C@@H]1CC[C@@H]2C(=O)CO` [CI028, Corticosterone], the minimal effective concentration is 2.5 µM under setting [1] and 0.625 µM under setting [2].
Consider `C#C[C@]1(OC(C)=O)CC[C@H]2[C@@H]3CCC4=C[C@@H](OC(C)=O)CC[C@@H]4[C@H]3CC[C@@]21C` [CI030, Ethynodiol diacetate], for which the “cell density reduction (in words)” value is on record as “failed to elicit vacuolation or reduce cell density” and the “vacuolation (in words)” value is “failed to elicit vacuolation”. For the same compound, the minimal effective concentration under setting [1] turned out to be 5 µM. Under setting [2], the minimal effective concentration is above 10 µM.
For the compound `CC(=O)O[C@]1(C(C)=O)CC[C@H]2[C@@H]3C[C@H](C)C4=CC(=O)CC[C@]4(C)[C@H]3CC[C@@]21C` [CI031, Medroxyprogesterone acetate], the minimal effective concentration reads like this: under setting [3], 2.5 µM; under setting [4], 2.5 µM.
`C#C[C@]1(O)CC[C@H]2[C@@H]3CCC4=CC(=O)CC[C@]4(C)[C@H]3CC[C@@]21C` [CI032, Ethisterone]: the “cell density reduction (in words)” value is on record as “failed to elicit vacuolation or reduce cell density” and the “vacuolation (in words)” value is “failed to elicit vacuolation”. Besides, the minimal effective concentration under setting [1] was determined as 10 µM. In addition, the minimal effective concentration under setting [2] was above 10 µM.
As for `C[C@]12CCC3=C4CCC(=O)C=C4CC[C@H]3[C@@H]1CC[C@@]2(O)CC#N` [CI033, Dienogest], the “cell density reduction (in words)” value is “failed to elicit vacuolation or reduce cell density” and the “vacuolation (in words)” value is “failed to elicit vacuolation”. Also, the minimal effective concentration under setting [1] was 10 µM. Besides, the minimal effective concentration under setting [2] is above 10 µM.
Take `C[C@@H]1C[C@H]2[C@@H]3CCC4=CC(=O)C=C[C@]4(C)[C@@]3(F)[C@@H](O)C[C@]2(C)[C@@]1(O)C(=O)COP(=O)([O-])[O-].[Na+].[Na+]` [CI039, Dexamethasone 21-phosphate disodium salt]: the minimal effective concentration was found to be 2.5 µM under setting [3] and 0.625 µM under setting [4].
For `CC1(C)O[C@@H]2C[C@H]3[C@@H]4CCC5=CC(=O)C=C[C@]5(C)[C@@]4(F)[C@@H](O)C[C@]3(C)[C@]2(C(=O)CO)O1` [CI041, Triamcinolone acetonide], the minimal effective concentration was 2.5 µM under setting [1] and 0.625 µM under setting [2].
As for `C[C@]12C=CC(=O)C=C1CC[C@@H]1[C@@H]2C(=O)C[C@@]2(C)[C@H]1CC[C@]2(O)C(=O)CO` [CI042, Prednisone], the minimal effective concentration under setting [1] stood at 2.5 µM and the minimal effective concentration under setting [2] was above 10 µM.
